Measurements reported in EP2716637A1, “MANGIFERIN AGLYCONE CRYSTAL FORM I AND PREPARATION METHOD THEREOF” (Kunming Pharmaceutical Corp., priority 2011, dated 2012).
Read-outs that look alike come from different tables or passages of the source.

How the values were obtained:
[1] = Stability of solutions in alkaline phosphate buffer, content by HPLC; assay type: physicochemical
Procedure: Appropriate amounts of mangiferin aglycone crystal form I and mangiferin aglycone were taken respectively, and phosphate buffer of pH 8.0, pH 9.0 and pH 10.0 were added respectively, metered to 100 ml, and were allowed to stand at 37°C, and samples were taken at 2, 4, 6, 8 and 12 hours respectively, and the content of mangiferin aglycone were measured by HPLC method. Stability of solution of mangiferin aglycone crystal form I

[2] = target: T1, recombinant humanized protein tyrosine phosphatase 1B (Homo sapiens, UniProt P18031); conditions: reported from CN200910184185.5; cited from earlier work
T1 sequence (P18031 1-435): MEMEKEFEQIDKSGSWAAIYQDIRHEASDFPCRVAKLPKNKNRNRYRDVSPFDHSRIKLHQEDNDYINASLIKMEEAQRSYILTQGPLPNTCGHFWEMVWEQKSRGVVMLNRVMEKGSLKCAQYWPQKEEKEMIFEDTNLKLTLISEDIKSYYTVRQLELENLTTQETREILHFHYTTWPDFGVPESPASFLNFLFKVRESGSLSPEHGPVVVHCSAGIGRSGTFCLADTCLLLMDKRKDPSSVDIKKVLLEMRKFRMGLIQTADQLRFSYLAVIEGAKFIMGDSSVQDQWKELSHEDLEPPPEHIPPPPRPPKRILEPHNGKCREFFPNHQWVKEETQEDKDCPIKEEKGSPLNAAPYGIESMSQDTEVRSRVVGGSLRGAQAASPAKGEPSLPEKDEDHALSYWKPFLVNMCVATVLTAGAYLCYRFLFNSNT

[3] = system: C57BL/6 normal mice and ob/ob diabetes model mice; conditions: cited from earlier work
[4] = system: C57BL/6 normal mouse; conditions: reported from CN200810196777.4, cited from earlier work
[5] = Blood concentration after oral (intragastric) administration to Beagle dogs; assay type: in vivo; conditions: for concentration: intragastrically, 6mg/kg, solid powder, listed as Commercially available mangiferin aglycone, 6 mg/kg, read-out: Mangiferin aglycone concentration in serum
Procedure: Solid powder of mangiferin aglycone crystal form I and commercially available mangiferin aglycone (reference substance of mangiferin aglycone, purchased from Sigma Corporation, Lot No.: 8420-201002) were administered to Beagle dogs intragastrically respectively. The dosage of administration was 6mg/kg, and arterial blood of the dogs was drawn at different time points after administration to determine the content of mangiferin aglycone (See Table 4 and Figure 6). Table 4. Comparison of blood concentrations at different time points after mangiferin aglycone samples were administered orally to Beagle dogs

O=c1c2cc(O)c(O)cc2oc2cc(O)cc(O)c12 [mangiferin aglycone, 1,3,6,7-tetrahydroxyxanthone]
content of mangiferin aglycone ([1]; phosphate buffer pH8, 37°C, standing time 2h, 120 min): 98.5%
content of mangiferin aglycone ([1]; phosphate buffer pH8, 37°C, standing time 4h, 240 min): 97.5%
content of mangiferin aglycone ([1]; phosphate buffer pH8, 37°C, standing time 6h, 360 min): 96.3%
content of mangiferin aglycone ([1]; phosphate buffer pH8, 37°C, standing time 8h, 480 min): 94.5%
content of mangiferin aglycone ([1]; phosphate buffer pH8, 37°C, standing time 12h, 720 min): 93.2%
content of mangiferin aglycone ([1]; phosphate buffer pH9, 37°C, standing time 2h, 120 min): 97.3%
content of mangiferin aglycone ([1]; phosphate buffer pH9, 37°C, standing time 4h, 240 min): 94.3%
content of mangiferin aglycone ([1]; phosphate buffer pH9, 37°C, standing time 6h, 360 min): 93.4%
content of mangiferin aglycone ([1]; phosphate buffer pH9, 37°C, standing time 8h, 480 min): 92.3%
content of mangiferin aglycone ([1]; phosphate buffer pH9, 37°C, standing time 12h, 720 min): 91.0%
content of mangiferin aglycone ([1]; phosphate buffer pH10, 37°C, standing time 2h, 120 min): 97.7%
content of mangiferin aglycone ([1]; phosphate buffer pH10, 37°C, standing time 4h, 240 min): 93.8%
content of mangiferin aglycone ([1]; phosphate buffer pH10, 37°C, standing time 6h, 360 min): 92.1%
content of mangiferin aglycone ([1]; phosphate buffer pH10, 37°C, standing time 8h, 480 min): 91.0%
content of mangiferin aglycone ([1]; phosphate buffer pH10, 37°C, standing time 12h, 720 min): 90.3%
type of inhibition [2]: competitive inhibitor
blood glucose of the experimental animal [3]: reduce
sensitivity to insulin [3]: significantly improve
in vivo secretion of insulin induced by glucose ([4]; C57BL/6-normal mouse): increase
IGTT ([4]; C57BL/6 normal mouse): significantly improve
concentration ([5]; 0.25 hr, 15 min): 666 nM
concentration ([5]; 0.5 hr, 30 min): 404 nM
concentration ([5]; 0.75 hr, 45 min): 414 nM
concentration ([5]; 1 hr, 60 min): 366 nM
concentration ([5]; 1.5 hr, 90 min): 136 nM
concentration ([5]; 2 hr, 120 min): 108 nM
concentration ([5]; 3 hr, 180 min): 100 nM
concentration ([5]; 4 hr, 240 min): 70.1 nM
concentration ([5]; 6 hr, 360 min): 52.6 nM
concentration ([5]; 8 hr, 480 min): 41.3 nM
blood concentration ([5]; same oral dosage, compared with mangiferin aglycone crystal form I): significantly lower
